From PMC4786417, “Ternatin and improved synthetic variants kill cancer cells by targeting the elongation factor-1A ternary complex” (eLife, 2015)

Tests used:
[1] = system: 50-kDa protein (eEF1A) in HEK293T cell lysates; assay: Photo-affinity labeling of cell lysates with probe 5; format: binding; settings: competitor 10 min before 5 (2 μM) 20 min, UV, TAMRA-azide click
Method: Lysates were prepared from HEK293T cells by washing a monolayer of cells once with ice-cold PBS and briefly freezing at –80°C. Lysis buffer (25 mM HEPES-KOH pH 7.3, 100 mM KOAc, 5 mM MgOAc2, 1 mM TCEP, 1 mM PMSF, Roche EDTA-free complete protease inhibitor) was added, and cells were detached with a cell scraper. Crude lysates were clarified by centrifugation (15 min at 14,000 rpm), protein was quantified by Bradford assay, and the protein concentration was brought to 1.5 mg/mL with lysis buffer. Lysates were processed for photo-labeling as described below. For samples treated with RNase A, RNase A (Roche) was added to lysates (10 mg/mL final concentration) and incubated for 20 min at RT.
Photo-labeling experiments were preformed essentially as described ([MacKinnon and Taunton, 2009]; [MacKinnon et al., 2007]). Reactions (100 μL) were treated with DMSO (1 μL) or competitor in DMSO as 100X stocks and incubated for 10 min at RT, then treated with photo-probe 5 and incubated for 20 min. Reactions were transferred to 96-well plates and irradiated with long-wave UV light (λmax = 355 nm, 1000 W, 90 s). […] Gels were scanned for TAMRA fluorescence (532 nm excitation laser, 568 nm emission measured with LPG filter) on a Typhoon FLA 9000 scanner (GE Life Sciences).

[2] = system: adipogenesis; settings: ref Shimokawa et al., 2008b; cited from earlier work
Method: Ternatin (1, Figure 1a) is an N-methylated cyclic heptapeptide that inhibits adipogenesis at low nanomolar concentrations (EC50 20 nM) and becomes cytotoxic at ten-fold higher concentrations ([Shimokawa et al., 2008a]). […] Motivating the current study, ternatin's molecular target and mechanism of action were completely unknown. While searching for cyclic peptides that, like ternatin, incorporate a β-hydroxy leucine, we found a paten ...

[3] = system: HCT116 cells; assay: HCT116 cell proliferation assay (alamarBlue, 72 hr); format: cell-based; settings: read-out: effect on HCT116 cell proliferation (no effect up to)
Method: HCT116 cells (ATCC, Manassas, VA) were maintained in McCoy’s 5A media (Gibco, Grand Island, NY) supplemented with 10% fetal bovine serum (Axenia Biologix, Dixon, CA), 100 units/mL penicillin, and 100 ug/mL streptomycin (Gibco). Mutant HCT116 cells were obtained from Dominic Hoepfner ([Krastel et al., 2015]). HEK293T cells (ATCC) and HeLa cells (ATCC) were maintained in DMEM (Gibco) supplemented with 10% fetal bovine serum, 100 units/mL penicillin, and 100 μg/mL streptomycin. All other cell lines were obtained from the Cancer Cell Line Encyclopedia collection and were maintained as described ([Barretina et al., 2012]). All cell lines were tested for mycoplasma (Lonza, CH) before use and were SNP-typed to verify that their identity matched that of the originally procured sample. […]
Growing cells were briefly trypsinized and repeatedly pipetted to produce a homogenous cell suspension. […] Fluorescence intensity was measured hourly to determine the linear range for each assay (Ex 545 nm, Em 590 nm, Spectra Max M5, Molecular Devices, Sunnyvale, CA). Proliferation curves were generated by first normalizing fluorescence intensity in each well to the DMSO-treated plate average. Normalized fluorescence intensity was plotted in GraphPad Prism (GraphPad, La Jolla, CA), and IC50 values calculated from nonlinear regression curves. […]

[4] = system: global protein synthesis in HCT116 cells; assay: 35S-methionine incorporation; format: cell-based; settings: 5 hr compound then 35S-Met 1 hr, autoradiography / scintillation counting after TCA precipitation (mean ± SEM, n = 3)
Method: HCT116 cells at 80% confluence in 12-well plates were incubated with compounds for 5 hr at 37°C. The cell culture media was replaced with methionine- and cysteine-free DMEM with the appropriate amount of compound. ^35S-methionine (PerkinElmer EasyTag, 40 μCi/well) was added and cells were incubated for 1 hr. Subsequently, media was aspirated and cells were washed twice with ice-cold phosphate-buffered saline (PBS). For samples analyzed by SDS-PAGE/autoradiography (Figure 2a), cells were lysed in buffer (PBS, 0.5% Triton X-100, Roche complete protease inhibitor cocktail, Roche, Indianapolis, IN) and protein content was normalized by Bradford assay. Dried gels were exposed to a storage phosphor screen (Amersham Biosciences, UK) overnight and scanned with a Typhoon imager (GE Life Sciences, Pittsburgh, PA). Bulk incorporation measurements (Figure 2b) were made by treating cells with cold 10% trichloroacetic acid (TCA, 0.5 mL) for 10 min. Precipitated monolayers were washed with 10% TCA (2 × 0.5 mL) and solubilized in 0.2 N NaOH (0.5 mL). Aliquots (100 μL) were diluted into liquid scintillation fluid and radioactivity was quantified by scintillation counting.

[5] = system: translation initiation/elongation in HeLa cells; assay: Ribosome/polysome profiles; format: cell-based; settings: 4 (5 μM) or cycloheximide (100 μg/mL) 15 min, then harringtonine 2 μg/mL 20 min
Method: HeLa cells grown to 80% confluence in 10-cm dishes were treated with DMSO or 4 (5 μM) for 20 min (Figure 2c, left panel), or were first treated with DMSO, 4 (5 μM), or cycloheximide (CHX, 100 μg/mL, Sigma, St. Louis, MO) for 15 min, followed by harringtonine (2 μg/mL, LKT Laboratories, St. Paul, MN) for 20 min. Following treatment, dishes were placed on ice, media aspirated, and cells were washed once with ice-cold PBS. Cells were scraped into 400 μL lysis buffer (20 mM Tris-HCl pH 7.5, 150 mM NaCl, 5 mM MgCl2, 1 mM DTT, 1% Triton X-100, 100 μg/mL CHX). Lysates were incubated for 10 min on ice, then passed through a 26-G needle 5 times. Samples were clarified by centrifugation at 14,000 rpm for 10 min at 4°C. Lysates were applied to 10–50% sucrose gradients (prepared in 20 mM Tris-HCl pH 7.5, 150 mM NaCl, 5 mM MgCl2, 1 mM DTT, 100 μg/mL CHX), followed by centrifugation at 35,000 rpm for 3 hr in a SW41 rotor at 4°C. Ribosome/polysome profiles were obtained by flowing the gradient top to bottom through an in-line spectrometer (254 nm, EM-1 Econo UV Monitor, BioRad, Hercules, CA).

didemnin B
competition of labeling of the 50-kDa band by probe 5 [1]: abolished

ternatin-4-Ala [Compound 2]
biological activity (adipogenesis assay) [2]: abolished biological activity | IC50 [3]: > 10 µM | effect on global protein synthesis (35S-methionine labeling) [4]: no effect

C[C@@H]1C[C@@H]([C@H](O)CC2CC(=O)NC(=O)C2)C(=O)[C@@H](C)C1 [cycloheximide]
harringtonine-induced polysome depletion [5]: completely blocked

CO[C@H]1\C=C/C=C\C=C/C[C@H](OC(=O)[C@@H](C)NC(=O)C2CCCCC2)[C@H](C)[C@@H](O)/C(C)=C\CCc2cc(O)cc(c2O)NC(=O)C1 [ansatrienin B]
competition of labeling of the 50-kDa band by probe 5 [1]: abolished
